{"source": "patent US20260091020A1", "about": "“TREATMENT OF ACUTE CANNABINOID OVERDOSE” (Anebulo Pharmaceuticals, Inc., priority 2022, published 2026)", "key": {"[1]": {"experiment": "Safety/tolerability in the phase 2 THC challenge study (50 and 100 mg Compound 1)", "conditions": "for QTcF, mean increase from baseline: 3 hours post dose, 3.1 ms in placebo group"}, "[2]": {"system": "central nervous system effects of THC", "experiment": "Phase 2 randomized, double-blind, placebo-controlled THC challenge study, PD endpoints (10.5 mg THC + 50 or 100 mg Compound 1)", "assay_type": "in vivo, human", "conditions": "for Proportion of subjects reporting feeling high: score of at least 20/100 on VAS feeling high scale"}, "[3]": {"system": "central nervous system effects of THC", "experiment": "THC challenge PD, 10.5 mg THC + 30 mg Compound 1 (Example 3)", "assay_type": "in vivo, human", "conditions": "THC (10.5 mg) + Compound 1 (30 mg)", "procedure": "Following the general methods of Example 1, the study design was adjusted such that groups received either (a) THC (10.5 mg)+placebo or (b) THC (10.5 mg)+Compound 1 (30 mg). Pharmacodynamic properties were then measured for Compound 1."}, "[4]": {"conditions": "50 mg Compound 1 group (20 per arm)"}, "[5]": {"conditions": "100 mg Compound 1 group (20 per arm)"}, "[6]": {"conditions": "10.5 mg THC + 50 or 100 mg ANEB-001, p<0.05, unpaired t-test"}, "[7]": {"conditions": "10.5 mg THC + 50 or 100 mg Compound 1 vs THC alone"}, "[8]": {"conditions": "10.5 mg THC + 50 or 100 mg Compound 1 vs THC alone, not statistically significant overall"}, "[9]": {"conditions": "10.5 mg THC + 50 or 100 mg Compound 1 vs THC alone, overall p<0.01"}}, "note": "“Also recorded” adds a separate entry of the source.", "data": [{"smiles": "CC(C)(C)NC(=O)N1CC(O[C@H](c2ccc(Cl)cc2)c2ccccc2C(F)(F)F)C1", "note": "[Compound 1, (R)—N-(tert-butyl)-3-((4-chlorophenyl)(2-(trifluoromethyl)phenyl)methoxy)azetidine-1-carboxamide]", "values": [{"measurement": "VAS nausea", "setting": "[1]; 10.5 mg THC + 50 or 100 mg Compound 1 vs THC/placebo", "value": "No significant difference overall between treatment groups"}, {"measurement": "Depressed mood, number of subjects", "setting": "[1]; [4]", "value": 1, "unit": "subject"}, {"measurement": "Feeling hot, number of subjects", "setting": "[1]; [4]", "value": 6, "unit": "subjects"}, {"measurement": "Hyperhidrosis, number of subjects", "setting": "[1]; [4]", "value": 6, "unit": "subjects"}, {"measurement": "Nausea, number of subjects", "setting": "[1]; [4]", "value": 13, "unit": "subjects"}, {"measurement": "Vomiting, number of subjects", "setting": "[1]; [4]", "value": 1, "unit": "subject"}, {"measurement": "QTcF, mean increase from baseline", "setting": "[1]; 50 mg Compound 1 group", "value": 7.9, "unit": "ms"}, {"measurement": "Heart rate, mean increase following dosing (up to)", "setting": "[1]; 50 mg and 100 mg Compound 1 group, placebo group up to ~6 bpm", "value": "3-4 bpm"}, {"measurement": "Depressed mood, number of subjects", "setting": "[1]; [5]", "value": 2, "unit": "subjects"}, {"measurement": "Feeling hot, number of subjects", "setting": "[1]; [5]", "value": 4, "unit": "subjects"}, {"measurement": "Hyperhidrosis, number of subjects", "setting": "[1]; [5]", "value": 7, "unit": "subjects"}, {"measurement": "Nausea, number of subjects", "setting": "[1]; [5]", "value": 8, "unit": "subjects"}, {"measurement": "Vomiting, number of subjects", "setting": "[1]; [5]", "value": 6, "unit": "subjects"}, {"measurement": "QTcF, mean increase from baseline", "setting": "[1]; 100 mg Compound 1 group", "value": 9.9, "unit": "ms"}, {"measurement": "Increase in total bilirubin compared to baseline", "setting": "[1]; 50 and 100 mg Compound 1 groups, 24 h post dose, 1.4 mol/L in placebo group", "value": 5}, {"measurement": "Severity of adverse events", "setting": "[1]; 50 and 100 mg Compound 1 with 10.5 mg THC", "value": "mild and transient except in the case of one subject in the 50 mg Compound 1 group who experienced moderate nausea and vomiting; also recorded: transient and of mild severity, except one case of vomiting of moderate severity in the 50 mg Compound 1 treatment group"}, {"measurement": "AESI: systolic blood pressure increase compared to baseline", "setting": "[1]; one subject, 100 mg Compound 1 group", "value": "> 30", "unit": "mmHg"}, {"measurement": "Overall safety and tolerability", "setting": "[1]; single doses of 50 and 100 mg Compound 1", "value": "safe and well tolerated by most subjects"}, {"measurement": "Proportion of subjects reporting feeling high", "setting": "[2]; 10.5 mg THC + 50 mg Compound 1", "value": 10, "unit": "%"}, {"measurement": "Responder Rate for Reduction in Feeling High", "setting": "[2]; 10.5 mg THC + 50 mg or 100 mg Compound 1, p<0.01 vs THC alone", "value": 60, "unit": "%"}, {"measurement": "Proportion of subjects reporting feeling high", "setting": "[2]; 10.5 mg THC + 100 mg Compound 1", "value": 30, "unit": "%"}, {"measurement": "Maximum change from baseline in body sway", "setting": "[2]; [6]", "value": "significant reduction in the maximum change from baseline for body sway"}, {"measurement": "Maximum change from baseline in heart rate", "setting": "[2]; [6]", "value": "significant reduction in the maximum change from baseline for heart rate"}, {"measurement": "VAS calmness", "setting": "[2]; [7]", "value": "no overall significant difference between the treatment groups"}, {"measurement": "VAS internal perception", "setting": "[2]; [7]", "value": "no significant differences between treatments"}, {"measurement": "VAS mood", "setting": "[2]; [7]", "value": "no significant differences between treatments"}, {"measurement": "Heart rate", "setting": "[2]; [8]", "value": "trend towards normalization of heart rate; also recorded: trend to normalization of heart rate"}, {"measurement": "THC-induced body sway", "setting": "[2]; [8]", "value": "trend towards reduced body sway; also recorded: trended to improvement"}, {"measurement": "VAS feeling high, time course", "setting": "[2]; 10.5 mg THC + 50 or 100 mg Compound 1 vs THC alone, overall p<0.0001", "value": "highly significant reduction in feeling high; also recorded: Highly significant and sustained improvement"}, {"measurement": "VAS alertness", "setting": "[2]; [9]", "value": "significantly inhibited the reduction in alertness; also recorded: significant improvement in alertness"}, {"measurement": "VAS external perception", "setting": "[2]; [9]", "value": "significantly inhibited the change in perception; also recorded: Significant improvement at both dose levels"}, {"measurement": "Body sway, VAS alertness and VAS feeling high vs. placebo", "setting": "[3]", "value": "improvements in metrics such as body sway, VAS alertness, and VAS feeling high"}]}]}
